Test [1] deals with T1, rat CB2 receptor (rCB2) (Rattus norvegicus, UniProt Q9QZN9).
T1 sequence (Q9QZN9 1-360): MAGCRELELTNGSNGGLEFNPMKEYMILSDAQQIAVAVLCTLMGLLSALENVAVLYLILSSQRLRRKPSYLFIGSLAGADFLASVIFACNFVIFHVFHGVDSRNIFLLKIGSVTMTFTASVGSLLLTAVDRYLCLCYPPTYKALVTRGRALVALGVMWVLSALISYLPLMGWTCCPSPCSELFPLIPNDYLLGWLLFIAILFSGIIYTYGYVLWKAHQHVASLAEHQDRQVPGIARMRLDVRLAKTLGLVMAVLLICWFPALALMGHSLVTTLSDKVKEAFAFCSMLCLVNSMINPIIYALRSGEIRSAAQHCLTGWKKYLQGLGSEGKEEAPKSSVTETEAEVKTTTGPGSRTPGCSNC
Description: cell-based. The following applies: for +/− RCB2: agonist or inverse agonist at rCB2. The test is classed as cell-based. As for the experimental part:
(§1) The ability of compounds to act as agonists or inverse agonists at human CB2 and CB1 receptors (hCB2, hCB1, respectively) and at the rat CB2 receptor (rCB2) was determined by measuring changes in intracellular cAMP levels. Chinese Hamster Ovary (CHO-K1) cell lines stably expressing hCB2 (Genebank: X74328) or hCB1 (Genebank: X54937) were purchased from Euroscreen (Gosselies, Belgium). The rat CB2 receptor was expressed from genomic DNA (provided by M. Abood, California Pacific Medical Center) in CHO-K1 cells from expression plasmid vector, pcDNA3.1.
(§2) Cell lines were grown in suspension in EX-CELL 302 CHO Serum-free medium (Sigma, cat #14324C) supplemented with 1% Fetal Bovine Serum, glutamine and non-essential amino-acids under 0.4 mg/mL G418 selection.
(§3) Receptor mediated responses were determined by measuring changes in intracellular cAMP using LANCE cAMP detection kit (cat #AD0264, Perkin Elmer, Wellesley, Mass.) based on time-resolved fluorescence resonance energy transfer (TR-FRET). Changes in cAMP were determined in cells pre-incubated with IBMX (isobutyl methylxanthine) and prestimulated with NKH-477 (a water soluble forskolin derivative, cat #1603, Tocris, Ellisville, Mo.) to increase basal cAMP levels as detailed below.
(§4) On the day of the experiment, cells were spun at low speed for 5 min at room temperature. The supernatant was removed and cells were resuspended in stimulation buffer (Hanks Buffered Salt Solution/5 mM HEPES, containing 0.5 mM IBMX (cat #17018, Sigma) and 0.02% BSA (Perkin-Elmer, cat #CR84-100)). Cell clumps were removed by filtering through cell strainer 40 μm (BD Falcon, Discovery Labware, Bedford, Mass.) and diluted to 2×10^5 cells/mL. Antibody supplied with the LANCE cAMP immunoassay kit was then added according to the manufacturer's instructions. An aliquot of cells was taken for un-induced controls. To the remaining cells was added NKH-477 (a water soluble forskolin derivative, Tocris cat #1603) to a final concentration of 2-8 μM. Cells were then incubated for 30 min at room temperature prior to adding to Proxiplates containing test compounds (final DMSO concentration was less than 0.5%) with a Multidrop bulk dispenser, followed by a sixty minute incubation at room temperature. The response was stopped by addition of the detection mix supplied with the LANCE kit. The reagents were allowed to equilibrate for three hours prior to reading on an Envision multi-mode detector (Perkin-Elmer). TR-FRET was measured using a 330-380 nm excitation filter, a 665 nm emission filter, dichroic mirror 380 nm and Z=1 mm. Cyclic AMP concentrations in each well were back-calculated from a cAMP standard curve run concurrently during each assay. Each plate contained 16 wells of forskolin stimulated cells and 16 wells of forskolin plus CP55,940-treated cells. Cells were treated with 1 μM CP55,940 (Tocris cat. #0949). Concentrations of cAMP were expressed as a percent of the difference of these two groups of wells. Concentration-response data including EC50 (the concentration of compound producing 50% of the maximal response) and intrinsic activity (the percent maximal activation compared to full activation by CP55,940) were determined using a four-parameter non-linear regression algorithm (Xlfit equation 251, IDBS).

The target in test [2] is human CB1 receptor (hCB1) (Homo sapiens, UniProt P21554). Briefly: cell-based. The test is classed as cell-based. Here is the method:
as §1, §2, §3, §4

The mark [3] stands for this setting: groups >100 nM-10 μM and >10 μM, cAMP, CHO-K1 rCB2, read-out: EC50 RCB2.
[4] abbreviates: groups >100 nM-10 μM and >10 μM, cAMP, CHO-K1 hCB1, read-out: EC50 HCB1.

Molecules are shown by their SMILES. Structures can show the parent of a compound that is named as a salt. Where two headings read alike, the source gives them in different places.

human CB1 receptor (hCB1), sequence (P21554 whole entry): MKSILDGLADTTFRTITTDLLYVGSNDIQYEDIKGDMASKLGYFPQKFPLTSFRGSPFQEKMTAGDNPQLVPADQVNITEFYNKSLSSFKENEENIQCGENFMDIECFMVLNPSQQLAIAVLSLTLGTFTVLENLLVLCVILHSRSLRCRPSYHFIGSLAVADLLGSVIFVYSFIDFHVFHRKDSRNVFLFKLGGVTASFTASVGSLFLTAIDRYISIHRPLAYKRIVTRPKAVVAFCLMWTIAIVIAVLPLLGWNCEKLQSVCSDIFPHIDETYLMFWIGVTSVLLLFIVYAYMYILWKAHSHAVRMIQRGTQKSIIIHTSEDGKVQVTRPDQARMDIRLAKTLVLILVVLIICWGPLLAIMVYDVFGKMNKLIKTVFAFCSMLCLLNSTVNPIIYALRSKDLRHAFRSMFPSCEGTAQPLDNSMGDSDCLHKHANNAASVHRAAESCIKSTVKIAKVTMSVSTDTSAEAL

For orientation: EC50 means the concentration at which the effect is half-maximal. Consider `C[C@@H](NC(=O)c1nc(-c2ccccc2)n2c1CNCC2)C(C)(C)C` [Compound 26, (R)-N-(3,3-dimethylbutan-2-yl)-3-phenyl-5,6,7,8-tetrahydroimidazo[1,5-a]pyrazine-1-carboxamide], for which the EC50 in test [1] and in test [2] was > 10000 nM each time.

Take `C[C@H](NC(=O)c1nc(-c2ccccc2)n2c1CNCC2)C(C)(C)C` [Compound 27, (s)-N-(3,3-dimethylbutan-2-yl)-3-phenyl-5,6,7,8-tetrahydroimidazo[1,5-a]pyrazine-1-carboxamide]: the EC50 in test [1] and in test [2] was > 10000 nM throughout.

Consider `CNC(=O)[C@H](C)NC(=O)c1nc(-c2ccccc2)n2c1CNCC2` [Compound 28, (S)-N-(1-(methylamino)-1-oxopropan-2-yl)-3-phenyl-5,6,7,8-tetrahydroimidazo[1,5-a]pyrazine-1-carboxamide], for which the EC50 in test [1] (setting [3]) and in test [2] (setting [4]) was > 10000 nM throughout.

`CC(C)(CO)CNC(=O)c1nc(-c2ccccc2)n2c1CNCC2` [Compound 29, N-(3-hydroxy-2,2-dimethylpropyl)-3-phenyl-5,6,7,8-tetrahydroimidazo[1,5-a]pyrazine-1-carboxamide]: in test [1], the “+/− RCB2” value was “−”. Besides, the EC50 in test [2] (setting [4]) was > 10000 nM.

In the case of `CC(C)(C)OC(=O)N1CCn2c(-c3ccccc3)nc(C(=O)NC3C4(C)CCC(C4)C3(C)C)c2C1` (centres unmarked) [Compound 30, tert-butyl 3-phenyl-1-(1,3,3-trimethylbicyclo[2.2.1]heptan-2-ylcarbamoyl)-5,6-dihydroimidazo[1,5-a]pyrazine-7(8H)-carboxylate], in test [1], the “+/− RCB2” value is reported as “−”. In test [2], the EC50 is > 10000 nM.

Regarding `C[C@H](NC(=O)c1nc(-c2ccccc2)n2c1CN(C(=O)OC(C)(C)C)CC2)c1ccccc1` [Compound 31, (S)-tert-butyl 3-phenyl-1-(1-phenylethylcarbamoyl)-5,6-dihydroimidazo[1,5-a]pyrazine-7(8H)-carboxylate], the “+/− RCB2” value in test [1] is given as “−”. In addition, the EC50 in test [2] (setting [4]) is > 10000 nM.

With `CC(C)(C)OC(=O)N1CCn2c(-c3ccccc3)nc(C(=O)Nc3ccccc3)c2C1` [Compound 32, tert-butyl 3-phenyl-1-(phenylcarbamoyl)-5,6-dihydroimidazo[1,5-a]pyrazine-7(8H)-carboxylate], the “+/− RCB2” value in test [1] is recorded as “−”. The concentration giving a half-maximal response (EC50) in test [2] was > 10000 nM.

As to `CC(C)CCNC(=O)c1nc(-c2ccc(Cl)cc2)n2c1CN(C(=O)OC(C)(C)C)CC2` [Compound 33, tert-butyl 3-(4-chlorophenyl)-1-(isopentylcarbamoyl)-5,6-dihydroimidazo[1,5-a]pyrazine-7(8H)-carboxylate], the “+/− RCB2” value in test [1] was “−”. Also, the EC50 in test [2] (setting [4]) was > 10000 nM.

In the case of `CC(C)(C)OC(=O)N1CCn2c(-c3ccc(Cl)cc3)nc(C(=O)N[C@H](CO)C(C)(C)C)c2C1` [Compound 34, (S)-tert-butyl 3-(4-chlorophenyl)-1-(1-hydroxy-3,3-dimethylbutan-2-ylcarbamoyl)-5,6-dihydroimidazo[1,5-a]pyrazine-7(8H)-carboxylate], the “+/− RCB2” value in test [1] is reported as “−”. Moreover, the EC50 in test [2] is > 10000 nM.

Take `CC(C)(C)OC(=O)N1CCn2c(-c3ccccc3)nc(C(=O)NN3CCCCC3)c2C1` [Compound 35, tert-butyl 3-phenyl-1-(piperidin-1-ylcarbamoyl)-5,6-dihydroimidazo[1,5-a]pyrazine-7(8H)-carboxylate]: the “+/− RCB2” value in test [1] is listed as “−”. In test [2] (setting [4]), the EC50 was > 10000 nM.

`CC(C)(C)OC(=O)N1CCn2c(-c3ccccc3)nc(C(=O)NC3CCCCC3)c2C1` [Compound 36, tert-butyl 1-(cyclohexylcarbamoyl)-3-phenyl-5,6-dihydroimidazo[1,5-a]pyrazine-7(8H)-carboxylate]: the “+/− RCB2” value in test [1] is on record as “−”. Moreover, the EC50 in test [2] was > 10000 nM.

With `C[C@@H](NC(=O)c1nc(-c2ccccc2)n2c1CN(C(=O)OC(C)(C)C)CC2)C1CCCCC1` [Compound 37, (R)-tert-butyl 1-(1-cyclohexylethylcarbamoyl)-3-phenyl-5,6-dihydroimidazo[1,5-a]pyrazine-7(8H)-carboxylate], the “+/− RCB2” value in test [1] is “−”. Besides, the EC50 in test [2] is > 10000 nM.

On to `CC(C)(C)OC(=O)N1CCn2c(-c3ccccc3)nc(C(=O)NCC3CCOCC3)c2C1` [Compound 38, tert-butyl 3-phenyl-1-((tetrahydro-2H-pyran-4-yl)methylcarbamoyl)-5,6-dihydroimidazo[1,5-a]pyrazine-7(8H)-carboxylate], for which the “+/− RCB2” value in test [1] is listed as “−”. For the same compound, the EC50 in test [2] (setting [4]) is > 10000 nM.

`CC12CCC(C1)C(C)(C)C2NC(=O)c1nc(-c2ccccc2)n2c1CNCC2` (centres unmarked) [Compound 39, 3-Phenyl-N-(1,3,3-trimethylbicyclo[2.2.1]heptan-2-yl)-5,6,7,8-tetrahydro-imidazo[1,5-a]pyrazine-1-carboxamide HCl]: the “+/− RCB2” value in test [1] is recorded as “+”. The EC50 in test [2] is > 10000 nM.

Regarding `C[C@H](NC(=O)c1nc(-c2ccccc2)n2c1CNCC2)c1ccccc1` [Compound 40, (S)-3-phenyl-N-(1-phenylethyl)-5,6,7,8-tetrahydroimidazo[1,5-a]pyrazine-1-carboxamide], the “+/− RCB2” value in test [1] was “+”. Further, in test [2], the EC50 is > 10000 nM.

Turning to `O=C(Nc1ccccc1)c1nc(-c2ccccc2)n2c1CNCC2` [Compound 41, N,3-diphenyl-5,6,7,8-tetrahydroimidazo[1,5-a]pyrazine-1-carboxamide], the EC50 in test [1] (setting [3]) and in test [2] (setting [4]) was > 10000 nM throughout.

With `CC(C)CCNC(=O)c1nc(-c2ccc(Cl)cc2)n2c1CNCC2` [Compound 42, 3-(4-chlorophenyl)-N-isopentyl-5,6,7,8-tetrahydroimidazo[1,5-a]pyrazine-1-carboxamide], in test [1], the “+/− RCB2” value is reported as “−”. Also, the EC50 in test [2] (setting [4]) was > 10000 nM.

Regarding `CC(C)(C)[C@@H](CO)NC(=O)c1nc(-c2ccc(Cl)cc2)n2c1CNCC2` [Compound 43, (S)-3-(4-chlorophenyl)-N-(1-hydroxy-3,3-dimethylbutan-2-yl)-5,6,7,8-tetrahydroimidazo[1,5-a]pyrazine-1-carboxamide], in test [1], the “+/− RCB2” value is recorded as “−”. The EC50 in test [2] is > 10000 nM.

Consider `O=C(NN1CCCCC1)c1nc(-c2ccccc2)n2c1CNCC2` [Compound 44, 3-phenyl-N-(piperidin-1-yl)-5,6,7,8-tetrahydroimidazo[1,5-a]pyrazine-1-carboxamide], for which the “+/− RCB2” value in test [1] is reported as “−”. Further, in test [2], the EC50 is > 10000 nM.

As for `C[C@@H](NC(=O)c1nc(-c2ccccc2)n2c1CNCC2)C1CCCCC1` [Compound 45, (R)-N-(1-cyclohexylethyl)-3-phenyl-5,6,7,8-tetrahydroimidazo[1,5-a]pyrazine-1-carboxamide], in test [1], the “+/− RCB2” value was “−”. The EC50 in test [2] (setting [4]) was > 10000 nM.

With `O=C(NCC1CCOCC1)c1nc(-c2ccccc2)n2c1CNCC2` [Compound 46, 3-phenyl-N-((tetrahydro-2H-pyran-4-yl)methyl)-5,6,7,8-tetrahydroimidazo[1,5-a]pyrazine-1-carboxamide], the “+/− RCB2” value in test [1] was “−”. Also, the EC50 in test [2] (setting [4]) was > 10000 nM.

As to `O=C(NC1CCCCC1)c1nc(-c2ccccc2)n2c1CNCC2` [Compound 47, N-cyclohexyl-3-phenyl-5,6,7,8-tetrahydroimidazo[1,5-a]pyrazine-1-carboxamide], the EC50 in test [1] (setting [3]) and in test [2] (setting [4]) was > 10000 nM each time.

The record behind these values is US7517874B2 (priority 2007, dated 2009).
